Data published in patent US7084141B2, “Inhibitors of macrophase migration inhibitory factor and methods for identifying the same” (Avanir Pharmaceuticals, priority 2001, dated 2006).
Where two headings read alike, the source gives them in different places.

Assays:
Format in all cases: in vivo, mouse
[1] = system: BALB/c mice sensitized with β-D-galactosamine
[2] = system: serum TNF-α; test: Collagen induced arthritis model, serum TNF-α (ELISA); conditions: day 74, compared to untreated CIA samples
Experimental: (§1) In another experiment, fifteen DBA/1J mice, age 10–12 weeks were immunized on day 0 at the base of the tail with bovine collagen type II (CII 100 μg), emulsified in Freunds complete adjuvant (FCA; GibcoBRL). On day 21, a second dose of collagen was administered via the same route, emulsified in Freunds incomplete adjuvant. On day 28 the mice were injected subcutaneously with 100 μg of LPS (055:B5). On day 71 the mice were injected i.p. with 40 μg LPS (0111:B4). Groups and treatment protocol were the same as described as above. On day 74 blood samples were collected and cytokines were measured.

[3] = system: serum TNF-α; test: Serum TNF-α after LPS challenge in mice (ELISA); conditions: 20 mg/kg compound, LPS 5 mg/kg, four hours
Experimental: Ten 10-week-old (20±2 gram) female BALB/c mice (Charles River Laboratories, Kingston, N.Y.) were housed in a group of 5 per cage with free access to food and water and were acclimatized for at least one week prior to experimentation. On the day of experiment, mice were weighed and randomly distributed into group of 10 animals of equal mean body weight. Mice were injected i.p. with 200 μL of formulated compound 7e or buffer alone immediately before the i.p. injection of LPS (Escherichia coli 0111:B4, 10 mg/kg or 5 mg/kg body weight) and β-D-galactosamine (50 mg/kg body weight). […] Mouse serum Il-1β and TNF-α were measured by ELISA using a “mouse IL 1β immunoassay or mouse TNF-α immunoassay” kits (R&D System Minneapolis, Minn.) following manufacturer's direction. Serum MIF concentrations in mouse serum were quantified by a sandwich ELISA (ChemiKine MIF Kit, Chemicon, San Diego, Calif.). Samples were analyzed in duplicate, and results were averaged.
An initial control experiment was conducted to determine the base line levels of endogenous MIF in the murine model system (female Balb/c mice), and further to determine the rate and extent of increase in endogenous MIF following treatment with LPS (10 mg/kg). […] The level of MIF in serum was measured by HPLC as described above at 0, 2, 5 and 6 hours following LPS/galactosamine treatment. […]

[4] = system: DBA/1LacJ mice; test: Collagen induced arthritis model, paw thickness; conditions: day 74, eight doses at 0.4 mg/dose; vehicle 1.99 mm; p<0.05
Experimental: Twenty DBA/1LacJ mice, age 10–12 weeks, were immunized on day 0 at base of the tail with bovine collagen type II (CII 100 μg) emulsified in Freunds complete adjuvant (FCA; GibcoBRL). On day 7, a second dose of collagen was administrated via the same route (emulsified in Freunds incomplete adjuvant). On Day 14 mice were injected subcutaneously with 100 mg of LPS (055:B5). On day 70 mice were injected 40 μg LPS (0111:B4) intraperitoneally. Groups were divided according paw thickness, which was measured by a caliper, after randomization, to create a balanced starting group. Compound in buffer was given to mice on days 71, 72, 73, and 74 (total eight doses at 0.4 mg/dose, approximately 20 mg/kg of body weight). Mice were then examined on day 74 by two observers for paw thickness. FIG. 14 sets forth the experimental timeline. In this experiment, subsided mice (decline of full-blown arthritis) were treated with a final i.p. injection of LPS on day 70 to stimulate cytokine production as well as acute inflammation.

[5] = system: serum MIF; test: Collagen induced arthritis model, serum MIF (ELISA); conditions: day 74, compared to untreated CIA samples
Experimental: as §1

What does the source list for `Cn1c(=O)c([N+](=O)[O-])c(N2CCN(C(=O)c3ccco3)CC2)c2ccccc21` [compound 7e]?
survival at 12 hours ([1]; 1 mg/kg LPS, 20 mg/kg compound, neutralized by 300 μg/kg human recombinant MIF): significantly more (p<0.01) mice survive; 75% Animal Death ([1]; LPS Dosage 0.1 mg/kg): >100 h; 75% Animal Death ([1]; LPS Dosage 0.5 mg/kg): >100 h; 75% Animal Death ([1]; LPS Dosage 2 mg/kg): >100 h; 75% Animal Death ([1]; LPS Dosage 5 mg/kg): 32.0 h; 75% Animal Death ([1]; LPS Dosage 10 mg/kg): 18.0 h; 75% Animal Death ([1]; LPS Dosage 40 mg/kg): 11.6 h; survival ([1]; lethal dose of LPS (2, 5 and 10 mg/kg), 20 mg/kg i.p., control 6%, p=0.0004): 47%; serum TNF-α levels [2]: more significant inhibition of serum TNF-α levels; serum TNF-α level [3]: reductions; edema of the paw (paw thickness) [4]: 1.87 mm; serum MIF levels [5]: reduced serum MIF levels
